Measurements as given in ChEMBL document CHEMBL1201862, “PubChem BioAssay data set” (2004).
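48-hour exposure; five concentrations; linearly interpolated endpoints. Abbreviation: GI50, concentration required for 50% inhibition of growth.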 Active and inactive are the calls of the source. Rule as the data show it: active = GI50 up to about 1.1 µM and inactive = higher.

Tests used:
Assay in all cases: NCI anticancer screen, dose series, 48 h
SNB-75 = system: SNB-75
NCI/ADR-RES = system: NCI/ADR-RES
SK-MEL-28 = system: SK-MEL-28
COLO 205 = system: COLO 205
K562 = system: K562
NCI-H226 = system: NCI-H226
BT-549 = system: BT-549
786-0 = system: 786-0
DU-145 = system: DU-145
M14 = system: M14
PC-3 = system: PC-3
OVCAR-4 = system: OVCAR-4
MDA-N = system: MDA-N
SK-OV-3 = system: SK-OV-3
NCI-H23 = system: NCI-H23
OVCAR-5 = system: OVCAR-5
TK-10 = system: TK-10
SF-268 = system: SF-268
Hs-578T = system: Hs-578T

Measured: GI50

O=c1s[s+]([O-])c2ccccc12 (configuration not stated)
inactive: SNB-75 > 100 µM | NCI/ADR-RES > 100 µM | SK-MEL-28 > 100 µM | COLO 205 > 100 µM | K562 45.7 µM | NCI-H226 > 100 µM | BT-549 > 100 µM | 786-0 > 100 µM | DU-145 > 100 µM | M14 > 100 µM | PC-3 > 100 µM | OVCAR-4 > 100 µM | MDA-N > 100 µM | SK-OV-3 > 100 µM | NCI-H23 > 100 µM | OVCAR-5 > 100 µM

Cc1cccc(C)c1NC(=O)CCC(=O)/N=C(\N)NC#N
inactive: SNB-75 > 100 µM | SK-MEL-28 77.8 µM | COLO 205 > 100 µM | K562 > 100 µM | TK-10 > 100 µM | NCI-H226 > 100 µM | SF-268 > 100 µM | 786-0 > 100 µM | M14 > 100 µM | OVCAR-4 > 100 µM | SK-OV-3 > 100 µM | NCI-H23 > 100 µM | OVCAR-5 > 100 µM

[O-][S+](CCCl)c1c2ccccc2nc2ccccc12 (configuration not stated)
inactive: SNB-75 > 100 µM | NCI/ADR-RES > 100 µM | SK-MEL-28 > 100 µM | COLO 205 36.9 µM | K562 > 100 µM | TK-10 > 100 µM | NCI-H226 > 100 µM | SF-268 > 100 µM | 786-0 50.2 µM | DU-145 22.9 µM | M14 75 µM | PC-3 > 100 µM | OVCAR-4 > 100 µM | MDA-N 34.5 µM | SK-OV-3 > 100 µM | NCI-H23 75 µM | OVCAR-5 > 100 µM

CC1(C)C(=O)C=CC2(C)C1CC(O)C1(C)C2CCC2(C)C(c3ccoc3)OC(=O)C3OC321 (configuration not stated)
inactive: SNB-75 15.9 µM | NCI/ADR-RES 14.4 µM | SK-MEL-28 24.8 µM | COLO 205 21.5 µM | K562 24.8 µM | TK-10 16 µM | NCI-H226 14.2 µM | BT-549 18.7 µM | 786-0 12.2 µM | DU-145 16.4 µM | M14 32 µM | PC-3 31.6 µM | OVCAR-4 15 µM | MDA-N 18.1 µM | SK-OV-3 23.7 µM | NCI-H23 12.1 µM | OVCAR-5 32.3 µM

CC1(C)OC[C@@H]([C@H](O)C2C=CC(=O)S2)O1 (some centres not stated)
inactive: SNB-75 45.5 µM | NCI/ADR-RES 21.5 µM | COLO 205 17.9 µM | K562 25.4 µM | TK-10 44.9 µM | NCI-H226 27.5 µM | BT-549 17.9 µM | SF-268 15.5 µM | 786-0 22.9 µM | DU-145 21.2 µM | M14 44.3 µM | PC-3 34 µM | OVCAR-4 42.1 µM | MDA-N 22.1 µM | SK-OV-3 34.6 µM | NCI-H23 26.4 µM | OVCAR-5 63.7 µM

CC(=O)CC(=O)N(CCN(C(=O)CC(C)=O)c1ccccc1)c1ccccc1
inactive: SNB-75 51.8 µM | SK-MEL-28 > 100 µM | COLO 205 > 100 µM | K562 > 100 µM | TK-10 > 100 µM | NCI-H226 > 100 µM | SF-268 > 100 µM | 786-0 > 100 µM | M14 > 100 µM | OVCAR-4 > 100 µM | SK-OV-3 > 100 µM | NCI-H23 > 100 µM | OVCAR-5 > 100 µM

COc1cc(NC(C)=O)ccc1C(=O)NN1C(=O)C(Cl)C1c1ccco1 (configuration not stated)
inactive: SNB-75 > 100 µM | NCI/ADR-RES > 100 µM | SK-MEL-28 > 100 µM | COLO 205 61.8 µM | K562 > 100 µM | NCI-H226 44.7 µM | BT-549 > 100 µM | SF-268 > 100 µM | 786-0 > 100 µM | DU-145 > 100 µM | M14 > 100 µM | PC-3 > 100 µM | OVCAR-4 > 100 µM | MDA-N > 100 µM | NCI-H23 > 100 µM | OVCAR-5 > 100 µM

CCOP(=O)(/C=C/n1ccc(=O)[nH]c1=O)OCC
inactive: SNB-75 > 100 µM | NCI/ADR-RES > 100 µM | SK-MEL-28 > 100 µM | COLO 205 > 100 µM | K562 > 100 µM | TK-10 > 100 µM | NCI-H226 > 100 µM | BT-549 > 100 µM | SF-268 > 100 µM | 786-0 > 100 µM | DU-145 > 100 µM | M14 > 100 µM | PC-3 > 100 µM | OVCAR-4 > 100 µM | MDA-N > 100 µM | SK-OV-3 > 100 µM | NCI-H23 > 100 µM | OVCAR-5 > 100 µM

COc1cc(CC2CC(c3ccc4c(c3)OCO4)OC2=O)cc(OC)c1OC (configuration not stated)
inactive: SNB-75 > 100 µM | NCI/ADR-RES 83.2 µM | SK-MEL-28 > 100 µM | COLO 205 > 100 µM | K562 71.8 µM | TK-10 > 100 µM | NCI-H226 > 100 µM | SF-268 > 100 µM | 786-0 > 100 µM | DU-145 > 100 µM | M14 > 100 µM | PC-3 91.6 µM | Hs-578T > 100 µM | SK-OV-3 > 100 µM | NCI-H23 > 100 µM | OVCAR-5 > 100 µM

O=c1[nH]nc(Cc2ccc(Cl)cc2)n1/N=C/c1cccs1
inactive: SNB-75 19.1 µM | NCI/ADR-RES 50.5 µM | SK-MEL-28 > 100 µM | COLO 205 > 100 µM | K562 > 100 µM | NCI-H226 43.5 µM | BT-549 24.9 µM | SF-268 15.9 µM | 786-0 26.6 µM | DU-145 99.8 µM | M14 > 100 µM | PC-3 > 100 µM | OVCAR-4 > 100 µM | MDA-N > 100 µM | SK-OV-3 43.9 µM | NCI-H23 24.9 µM | OVCAR-5 73.3 µM

COC(=O)C(=CNC(N)=O)C(=O)OC
inactive: NCI/ADR-RES > 100 µM | SK-MEL-28 > 100 µM | COLO 205 > 100 µM | K562 > 100 µM | TK-10 > 100 µM | SF-268 > 100 µM | 786-0 > 100 µM | DU-145 > 100 µM | M14 > 100 µM | PC-3 > 100 µM | Hs-578T 63.4 µM | MDA-N > 100 µM | NCI-H23 > 100 µM | OVCAR-5 > 100 µM

N#C/C(=C\c1cc(Br)c(O)c(Br)c1)c1ccccn1
inactive: SNB-75 > 100 µM | NCI/ADR-RES 43 µM | SK-MEL-28 82 µM | COLO 205 52.4 µM | K562 34.6 µM | TK-10 80.2 µM | NCI-H226 30.4 µM | BT-549 30.2 µM | SF-268 93.8 µM | 786-0 49.5 µM | DU-145 > 100 µM | M14 72.8 µM | PC-3 29.1 µM | OVCAR-4 61 µM | MDA-N > 100 µM | SK-OV-3 32.5 µM | NCI-H23 44 µM | OVCAR-5 51.4 µM
